pIC50: −log10 of the molar value. Several values for one entry are separate records, joined by “and”; a condition that tells them apart may be missing. Equal entries are not always repeated. Where two headings read alike, the source gives them in different places.
How the values were obtained:
[1] = biological target: T1, GSTO1 (Homo sapiens, UniProt P78417); experiment: GSTO1 substrate assay (reduction of 4-NPG)
T1 sequence (P78417 1-241): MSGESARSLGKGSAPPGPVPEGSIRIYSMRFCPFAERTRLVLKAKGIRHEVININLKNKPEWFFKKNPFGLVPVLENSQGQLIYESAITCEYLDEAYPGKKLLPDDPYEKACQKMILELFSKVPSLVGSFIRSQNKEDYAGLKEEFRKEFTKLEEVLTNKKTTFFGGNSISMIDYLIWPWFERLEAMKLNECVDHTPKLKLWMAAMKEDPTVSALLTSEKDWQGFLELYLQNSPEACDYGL
Experimental: For activity screening, we adapted a GSTO1 substrate assay that relies on the quantification of the reduction of S-(4-nitrophenacyl)glutathione (4-NPG), a GSTO1-specific substrate[17], using recombinant human GSTO1 in a high-throughput screening format.
Enzyme activity was measured by monitoring the reduction of 4-NPG to 4-nitroacetophenone by GSTO1.

[2] = tested on: HCT116p53+/+ cell; experiment: MTT cell proliferation at single concentration; format: cell-based, human
Experimental: Cell proliferation was assessed by a MTT assay. Cancer cells were seeded in 96-well microtitre plates and, after overnight attachment, treated with GSTO1 inhibitors. After 72 h, MTT solution (3 mg ml^−1; 20 μl) was added to each well and cells were incubated for 3 h at 37 °C. After incubation, media from each well was removed and the dark blue formazan crystals formed by live cells were dissolved in DMSO (150 μl per well). The absorbance intensity was measured at 570 nm on a microplate reader (Molecular Devices, Sunnyvale, CA, USA). Cell viability after 24 h treatment was assessed using ApoTox-Glo triplex assay (Promega) according to the manufacturer's protocol. At least three independent dose–response experiments with each concentration tested in triplicate were performed for each cell line.

[3] = biological target: T1, GSTO1; experiment: In-gel fluorescence competitive CMFDA binding assay, recombinant GSTO1; details: inhibition of CMFDA binding
Excerpt: (§1) Primary screening of GSTO inhibitors was based on competitive inhibition of CMFDA binding to endogenous GSTO. Briefly, HCT116^p53+/+ cells (4 × 10^4 per well) were coated in a 12-well plate. […] Cells were then washed with PBS and lysed using Cell Lytic M buffer (Sigma). […] Gels were immediately scanned on a Typhoon variable mode imager (Amersham Bioscience). Quantification of fluorescent band intensity was done using Image Quant 5.2 software.

[4] = biological target: T2, endogenous GSTO1 (Homo sapiens, UniProt P78417); experiment: In-gel fluorescence competitive CMFDA binding assay, endogenous GSTO1 in HCT116; details: 10 µM; inhibition of CMFDA binding, HCT116
T2 sequence (P78417 1-241): T1 sequence (P78417 1-241)
Excerpt: as §1

[5] = read-out: GSTO substrate assay IC50, cluster screening tables

Row | Compound | pIC50 ([1]; Substrate assay IC50, pilot screening) | % Inhibition of HCT116p53+/+ cell proliferation at 10 µM [2] | GSTO substrate assay % Inhibition at 10 µM [1] [%] | GSTO binding assay (% Inhibition at 10 µM) Recombinant [3] [%] | GSTO binding assay (% Inhibition at 10 µM) Endogenous [4] [%] | pIC50 [1, 5]
1 | O=C(CCl)Nc1ccccc1NC(=O)CCl [4c] | 4.09 | – | – | – | – | –
2 | Cc1cc(C(C)(C)C)cc(C)c1NC(=O)CCl [C1-1] | – | 14% and 21.3% | 16.2 | 17.7 | – | –
3 | O=C(CCl)Nc1c(Br)cc([N+](=O)[O-])cc1Br [C1-3] | – | – | -4.9 | 0.9 | 3.8 | –
4 | O=C(CCl)Nc1ccc(OC(F)F)cc1 [C1-6] | – | – | 22.7 | 45.6 | 87.6 | –
5 | COC(=O)c1ccc(C(=O)OC)c(NC(=O)CCl)c1 [C1-8] | – | – | 100.9 | 61.2 | 56.5 | 5.25
6 | CCN(c1ccc(NC(=O)CCl)cc1)C(C)C [C1-15] | – | – | 91.3 | 43.8 | 78.6 | –
7 | O=C(CCl)Nc1ccccc1N1CCOCC1 [C1-21] | – | – | -8.4 | 69.9 | 58.2 | –
8 | CN(C1CCCCC1)S(=O)(=O)c1ccc(NC(=O)CCl)cc1 [C1-25] | – | 11.3% and 21.7% | 9.8 | 70.3 | – | –
9 | CCOc1ccc(NC(=O)CCl)cc1S(=O)(=O)N1CCCCC1 [C1-30] | – | – | 75 | 75.9 | 80.8 | 7.10
10 | CCN(CC)c1ccc(S(=O)(=O)N2CCOCC2)cc1NC(=O)CCl [C1-32] | – | – | 84.2 | 4.4 | 48.2 | –
11 | CCOC(=O)c1sc(-c2ccccc2)cc1NC(=O)CCl [C2-11] | – | – | -1.5 | 58.2 | 19.9 | –
12 | CCOC(=O)c1c(-c2ccc(OC)c(OC)c2)csc1NC(=O)CCl [C2-12] | – | – | 3.4 | 74.9 | 59.8 | –
13 | Cc1c(-c2ccccc2)sc(NC(=O)CCl)c1C(=O)N1CCOCC1 [C2-15] | – | – | 87.8 | 63.2 | 74.2 | 6.44
14 | O=C(CCl)Nc1sc2c(c1C(=O)c1ccccc1)CCCC2 [C2-20] | – | – | 91.1 | 68.3 | 39.6 | –
15 | CCOc1ccc(/C=C/C2=Cc3c(sc(NC(=O)CCl)c3C#N)C(C)(C)C2)cc1 [C2-21] | – | – | 99.5 | 78.6 | 52.3 | 6.46
16 | Cc1cc(C)c(-c2csc(NC(=O)CCl)n2)cc1C [C2-23] | – | – | 26.4 | 76.0 | – | –
17 | O=C(CCl)Nc1nc(-c2c[nH]c3ccccc23)cs1 [C2-25] | – | 0.5% and 4.3% | 3.7 | 75.7 | – | –
18 | Cc1ccc(-c2oc(NC(=O)CCl)c(C#N)c2-c2ccc(C)cc2)cc1 [C2-28] | – | 88.5% | -2.8 | 59.5 | – | –
19 | CCC1(c2ccccc2)NC(=O)N(NC(=O)CCl)C1=O (stereo not drawn) [C2-29] | – | – | 42.7 | 13.5 | 65.0 | –
20 | O=C(CCl)NCc1ccccc1CN1CCOCC1 [C3-1] | – | – | 11.1 | 6.0 | 7.3 | –
21 | O=C(CCl)NCc1cc([N+](=O)[O-])ccc1O [C3-3] | – | – | 93.2 | 47.9 | 52.0 | –
22 | COc1cc(OC)c(OC)cc1CNC(=O)CCl [C3-4] | – | 16% and 17.5% | 31.6 | -2.6 | – | –

Row | Compound | pIC50 ([1]; Substrate assay IC50, pilot screening) | % Inhibition of HCT116p53+/+ cell proliferation at 10 µM [2] | GSTO substrate assay % Inhibition at 10 µM [1] [%] | GSTO binding assay (% Inhibition at 10 µM) Recombinant [3] [%] | GSTO binding assay (% Inhibition at 10 µM) Endogenous [4] [%] | pIC50 [1, 5]
23 | CC(C)c1ccc(C(NC(=O)CCl)C(C)C)cc1 (stereo not drawn) [C3-6] | – | – | 56.2 | 53.7 | 51.3 | 5.10
24 | CCOc1ccc(OCCNC(=O)CCl)cc1 [C3-13] | – | – | 62.6 | 25.1 | – | –
25 | Cc1ccc(CSCCNC(=O)CCl)cc1 [C3-15] | – | – | 5.1 | 35.7 | 86.9 | –
26 | O=C(CCl)NC(=O)c1cccc2ccccc12 [C3-18] | – | – | 0.6 | 0.3 | 37.5 | –
27 | CCOc1ccc(NC(=O)NC(=O)CCl)cc1OCC [C3-19] | – | – | 99.5 | 59.2 | 65.2 | 6.29
28 | COc1cc(C(=O)NNC(=O)CCl)cc(OC)c1OC [C3-22] | – | – | 10.4 | -2.4 | -12.1 | –
29 | Cc1cc(C)c(NC(=O)CNC(=O)CCl)c(C)c1 [C3-24] | – | – | 72.3 | 29.2 | 58.8 | –
30 | CCOC(=O)c1c(-c2ccccc2)csc1NC(=S)NC(=O)CCl [C3-26] | – | – | 69.5 | 68.2 | 42.2 | –
31 | Cc1cccc(NC(=S)NC(NC(=O)CCl)C(Cl)(Cl)Cl)c1 (stereo not drawn) [C3-27] | – | – | 54.2 | 63.4 | 63.8 | 5.78
32 | Cc1nn(Cc2ccccc2)c(C)c1CNC(=O)CCl [C3-30] | – | – | 83.1 | 10.6 | 14.5 | –
33 | O=C(CCl)NCC1(N2CCCCC2)CCCCC1 [C3-31] | – | – | 0.3 | -13.7 | 23.0 | –
34 | O=C(CCl)NCCN1C(=O)SC(=Cc2ccccc2F)C1=O [C3-32] | – | – | 12.5 | 23.6 | 53.1 | –
35 | NC(=O)CCN(C(=O)CCl)c1ccccc1 [C4-3] | – | 70.6% and 71.9% | 32.3 | -1.7 | – | –
36 | CCN(C(=O)CCl)C1CCS(=O)(=O)C1 (stereo not drawn) [C4-4] | – | – | -0.8 | 5.9 | 17.0 | –
37 | CN(CCOc1ccc(Cl)cc1)C(=O)CCl [C4-9] | – | – | 20.7 | 66.7 | 43.5 | –
38 | C=CCOc1ccccc1CN(C(=O)CCl)c1ccc2c(c1)OCCO2 [C4-17] | – | 29% | 70.2 | 69.3 | – | 6.04
39 | COCCN(C(=O)CCl)c1c(N)n(Cc2ccccc2)c(=O)[nH]c1=O [C4-18] | – | – | 14.2 | 4.5 | 18.7 | –
40 | O=C(CCl)N1CCC(Cc2ccccc2)CC1 [C5-1] | – | 93.4% | 83.5 | 67.5 | – | 7.32
41 | O=C(CCl)N1CCN(c2ncc(C(F)(F)F)cc2Cl)CC1 [C5-6] | – | 56.2% | 94.6 | 70.2 | – | 6.72
42 | O=C(CCl)N1CCN(S(=O)(=O)c2ccc(F)c(F)c2)CC1 [C5-14] | – | – | 91.8 | 61.2 | 60.9 | 6.30
43 | COc1cc2c(cc1OC)CN(C(=O)CCl)CC2 [C5-17] | – | – | 69.5 | 9.4 | – | –

— paper PMC5059489, “Mechanistic evaluation and transcriptional signature of a glutathione S-transferase omega 1 inhibitor” (Nature Communications, 2016)
